Data from patent publication US8741967B2, “Use of unsaturated sphingosine compounds as chemotherapeutic agents for the treatment of cancer” (Children's Hospital & Research Center at Oakland, priority 2007, dated 2014).
“Also recorded” adds a separate entry of the source.

Columns and labels:
4EBP [1] = test: Phosphorylated 4EBP in polyps of ApcMin/+ mice by western blotting; format: in vivo; settings: gavage 2.5 mg/day, day 10
Protocol: (§1) Murine experiments were performed to investigate the in vivo effect of C14Δ4:6Sd on the development of polyps in intestinal tissue using an established animal model system having an inherited genetic defect underlying spontaneous multiple intestinal neoplasia (Min) (Polakis, 1997 Biochim Biophys. Acta. 1332:F127; Kucherlapati et al., 2001 Semin. Canc. Biol. 11:219; Sansom et al., 2004 Genes Dev. 18:1385). Ten 12 week-old male ApcMin/+ mice (available from Jackson Laboratory, Bar Harbor, Me.) were administered by gavage 2.5 mg/day C14Δ4:6Sd and ten mice received vehicle control. Mice were euthanized by CO2 asphyxiation and intestinal tissues harvested at day 10. Gross polyps were counted and measured (diameter). […] Polyps were further analyzed for phosphorylated 4EBP by western blotting and it was confirmed that sphingadienes inhibited 4EBP phosphorylation in vivo.

4EBP [2] = test: 4EBP phosphorylation by western blotting in HT29 cells; format: cell-based, human; settings: HT29, 10 μM, 0.5 to 24 hours
Protocol: (§2) To address the possibility that sphingadienes might promote cell death by inhibiting the PI3K/AKT pathway, the effect of sphingadienes on phosphorylation of AKT, PTEN, and the AKT substrate 4EBP, which is a regulator of protein translation, was evaluated using immunoblotting of whole cell extracts.
(§3) HT29 cells were incubated with 10 μM C14Δ4:6Sd for 0.5, 1, 3, 6 and 24 hours and the level of Akt and 4EBP phosphorylation was evaluated at each time point by western blotting. […] The ratios of phosphorylated Akt to total Akt and of phosphorylated 4EBP to total 4EBP, were quantified by densitometry using ImageJ software (ImageJ is a public domain Java image processing program inspired by NIH Image; available at rsbweb.nih.gov/ij/index.html) and are shown in FIG. 7A and FIG. 7B, respectively.
(§4) In an additional experiment, HT29 cells were treated for various time periods with 10 μM C14Δ4:6Sd or C18Δ4:8Sd and the level of phosphorylation of Akt and 4EBP was evaluated by western blotting at 0.5, 1.0 and 3.0 hours. The results confirmed that sphingadienes inhibited phosphorylation of Akt and 4EBP, even at 0.5 hours of exposure, thus inhibiting signaling through Akt and 4EBP.

ApcMin/+ mice = test: Intestinal polyps in ApcMin/+ mice; format: in vivo; settings: gavage 2.5 mg/day, day 10, versus vehicle control
Protocol: as §1

DLD1 cells = test: Viability of DLD1 colon cancer cells; format: cell-based; settings: Homo sapiens, DLD-1; DLD1, 10 μM, 24 hours; read-out: viability, % of controls
Protocol: (§5) The human colon cancer cell lines, HT29, SW480, HCT116 and DLD1 were treated with 10 μM C14Δ4:6Sd (also referred to herein as 2-aminotetradeca-4,6-diene-1,3-diol) and viability was determined at 24 hours.

HT29 cells [3] = test: Caspase-3 activity assay (apoptosis) in HT29 colon cancer cells; format: cell-based, human
Protocol: To assess the effect of C14 sphingadienes on colon cancer cell viability, HT29, DLD1 and SW480 colon cancer cells (available from American Type Culture Collection (ATCC), Manassas, Va.) were propagated in DME-H21 plus 10% serum until ⅔ confluent. Media was then replaced with serum-free media containing 10 μM sphingadienes (SD). After 24 hours, cells were harvested, and whole cell extracts were prepared for caspase-3 activity assays. Caspase-3 activity was determined using substrate Ac-DEVD-pNA (Biomol, Plymouth Meeting, Pa.) as described (Oskouian, B., et al., Proc Natl Acad Sci USA 103: 17384-17389, 2006).
In an additional experiment, HT29 cells were treated with 10 μM sphingoid bases or ceramides and caspase-3 activity was determined at 24 hours.
HT29 cells transfected with constitutively active myristoylated Akt (myr-Akt) were treated with 10 μM C14Δ4:6Sd and caspase 3 activity was determined at 24 hours.
(§6) HT29 cells were incubated for 6 hours with 10 μM C14Δ4:6Sd and the translational activity of the cell cytosol was measured with the DUAL-LUCIFERASE® Reporter Assay System (Promega, Madison, Wis.). […] In another experiment, HT29 cells were pretreated with inhibitors of p38 (SB20350), MEK (PD98059), PI3K (LY294002) and JNK (JNK inhibitor 2) and caspase 3 activity was determined following an 18 hour incubation with 10 μM C14Δ4:6Sd.

HT29 cells [4] = test: Viability of HT29 colon cancer cells; format: cell-based, human
Protocol: as §5
HT29 cells were then incubated with various sphingadiene compounds and viability was determined at 24 hours.
HT29 cells were incubated with various concentrations of C14Δ4:6Sd and viability was determined at 24 hours or incubated with 10 μM C14Δ4:6Sd and viability was determined at various time points.
In a further experiment, HT29 cells were treated with the PI3K inhibitor wortmannin and various concentrations of C14Δ4:6Sd and viability was determined at 24 hours by MTT assay. The results confirmed synergistic inhibition of […] by C14Δ4:6Sd and wortmannin (see FIG. 8C).

[5] = molecular target: T1, murine Sphingosine Kinase 1 (SK1) (Mus musculus, UniProt Q8CI15); test: Phosphorylation by SK1 in extracts of HEK293 cells overexpressing SK1 (HPLC); format: biochemical; settings: cell extracts preincubated for 10 minutes
T1 construct: expressed in transfected cells; host or cells: HEK293
Protocol: The formed phosphorylated sphingoid base products were measured by HPLC.
In order to test if preincubation with C14-So or C14Δ4:6Sd has an inhibitory effect on the ability of the SK enzyme to phosphorylate the C17-So compound, cell extracts were preincubated for 10 minutes with either C14-So or C14Δ4:6Sd followed by C17-So.

HT29 cells [6] = test: Uptake and metabolism in HT29 colon cancer cells (LC-MS); format: in vitro ADME, human; settings: for conversion to the phosphorylated compound in intact cells / uptake rate compared with long chain sphingosine / uptake rate by cells / clearance / metabolism in cells after lipid removal: HT29, 10 μM; for conversion to the phosphorylated compound in intact cells: LC-MS; for uptake rate compared with long chain sphingosine: not shown; for uptake rate by cells: serum-free media; for clearance / metabolism in cells after lipid removal: then incubated without lipids for up to 6 hours
Protocol: In this example, the uptake and metabolism of C14 sphingadienes was compared with that of synthetic C17 sphingosine (as a substitute for endogenous C18 sphingosine which is already present in cells) and C14 sphingosine (to assess the importance of the second double bond) by HT29 colon cancer cells. Toward that end, cells were incubated with 10 μM sphingadiene in serum-free media, followed by cell harvest at various time points, lipid extraction and analysis by mass spectrometry of SD, SD-phosphate, C14 sphingosine and corresponding S1Ps.
HT29 cells were incubated for 0.25 hours, 0.5 hours and 1 hour in media containing 10 μM C14-So (Δ4) (sphingosine) or C14Δ4:6Sd (see FIG. 9A). HT29 cells were incubated for 1 hour in media containing 10 μM C14-So or C14Δ4:6Sd. Media was then removed and cells were incubated without lipids for 1, 3 and 6 hours (FIG. 9B). At each time point, cells were harvested, lipids were extracted and the cellular contents of C14-So or C14Δ4:6Sd and the corresponding phosphorylated compounds were analyzed by LC-MS.

SW480 cells [7] = test: Autophagy: GFP-LC3 fluorescence microscopy in SW480 cells; format: cell-based, human; settings: SW480 transfected with GFP-LC3, 5 μM, 4 h
Protocol: (§7) Autophagy is a cell process used to degrade components of the cytoplasm and functions as a cell survival mechanism during nutrient deprivation (P. Codogno and A J Meijer, Cell Death Differ. 2005 November; 12 Suppl 2:1509-18). […] In order to further investigate this phenomenon, LC3 (microtubule associated protein 1 light chain 3) was used as a marker for this process.
(§8) In one experiment, SW480 cells were transfected with a GFP-LC3 construct and treated for 4 h with 5 μM C14Δ4:6Sd. […] In another experiment, SW480 cells transfected with myr-Akt were treated with various concentrations of C14Δ4:6Sd and the amount of LC3 activation (shift from LC3-1 to LC3-2) was verified by western blotting.

LC3 = LC3 activation (LC3-1 to LC3-2 shift) by western blotting in SW480 cells transfected with myr-Akt; format: cell-based, human; settings: various concentrations
Protocol: as §7, §8

HCT116 cells = test: Viability of HCT116 colon cancer cells; format: cell-based; settings: Homo sapiens, HCT-116; HCT116, 10 μM, 24 hours; read-out: viability, % of controls
Protocol: as §5

SK = test: Competition studies with sphingosine and SD on sphingosine kinase; settings: not shown, listed as C14 SD
protein synthesis = test: Translational activity of HT29 cell cytosol (DUAL-LUCIFERASE Reporter Assay System); format: cell-based, human; settings: HT29, 10 μM, 6 hours
Protocol: as §6

SW480 cells [8] = test: Viability of SW480 colon cancer cells; format: cell-based; settings: Homo sapiens; SW480, 10 μM, 24 hours; read-out: viability, % of controls
Protocol: as §5

Akt = Akt phosphorylation by western blotting in HT29 cells; format: cell-based, human; settings: HT29, 10 μM, 0.5 to 24 hours
Protocol: as §2, §3, §4

4EBP [9] = test: 4EBP phosphorylation by western blotting in SW480 cells; format: cell-based, human; settings: SW480, 10 μM, up to 5 hours
[10] = molecular target: T2, human Sphingosine-1-Phosphate Lyase (SPL) (Homo sapiens, UniProt O95470); test: Cleavage by SPL in HEK 293 cells overexpressing SPL; format: biochemical
T2 construct: expressed in transfected cells; host or cells: HEK 293
T2 sequence (O95470 1-568): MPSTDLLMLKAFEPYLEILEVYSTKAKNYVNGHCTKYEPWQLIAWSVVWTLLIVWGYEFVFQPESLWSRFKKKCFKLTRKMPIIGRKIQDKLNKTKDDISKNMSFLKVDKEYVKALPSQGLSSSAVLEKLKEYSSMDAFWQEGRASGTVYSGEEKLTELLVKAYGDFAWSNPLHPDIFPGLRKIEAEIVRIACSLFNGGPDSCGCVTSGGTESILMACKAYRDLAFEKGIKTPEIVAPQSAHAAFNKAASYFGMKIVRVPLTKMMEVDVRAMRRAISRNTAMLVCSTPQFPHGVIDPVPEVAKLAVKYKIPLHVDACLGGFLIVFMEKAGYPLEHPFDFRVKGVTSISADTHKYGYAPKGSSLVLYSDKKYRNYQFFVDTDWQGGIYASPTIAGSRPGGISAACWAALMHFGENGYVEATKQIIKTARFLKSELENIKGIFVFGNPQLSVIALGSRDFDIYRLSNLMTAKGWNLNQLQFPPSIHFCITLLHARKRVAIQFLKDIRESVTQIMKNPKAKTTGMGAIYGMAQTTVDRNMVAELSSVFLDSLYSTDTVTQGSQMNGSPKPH

[11] = HT29 pretreated with inhibitor, 18 hour incubation with 10 μM
[12] = HT29, various concentrations, 24 hours

T1 sequence (Q8CI15 whole entry): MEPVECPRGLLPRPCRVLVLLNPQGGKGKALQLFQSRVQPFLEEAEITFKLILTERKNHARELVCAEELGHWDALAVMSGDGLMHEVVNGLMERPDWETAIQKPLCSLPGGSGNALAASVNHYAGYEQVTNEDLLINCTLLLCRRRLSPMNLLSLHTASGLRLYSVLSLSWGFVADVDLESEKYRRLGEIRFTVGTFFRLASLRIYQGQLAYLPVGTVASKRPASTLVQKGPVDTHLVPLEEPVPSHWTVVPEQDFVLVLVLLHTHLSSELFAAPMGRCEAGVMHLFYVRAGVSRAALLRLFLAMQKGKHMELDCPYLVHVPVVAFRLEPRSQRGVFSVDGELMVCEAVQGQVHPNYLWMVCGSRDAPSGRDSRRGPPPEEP

Structure (SMILES): CCCCCCC/C=C/C=C/C(O)C(N)CO (centres unmarked) [C14Δ4:6Sd, 2-aminotetradeca-4,6-diene-1,3-diol]
- 4EBP phosphorylation in polyps in vivo (4EBP [1]): inhibited
- phosphorylation of 4EBP (4EBP [2]): inhibited
- size (diameter) of intestinal polyps (ApcMin/+ mice): reduced the size
- number of intestinal polyps (ApcMin/+ mice; p<0.0027): significantly reduced
- viability at 10 µM (DLD1 cells): < 50%
- caspase 3 activity in combination with JNK inhibitor (JNK inhibitor 2) (HT29 cells [3]; [11]): not synergistic
- caspase 3 activity in combination with MEK inhibitor (PD98059) (HT29 cells [3]; [11]): not synergistic
- caspase 3 activity in combination with PI3K inhibitor LY294002 (HT29 cells [3]; [11]): synergistic
- caspase 3 activity in combination with p38 inhibitor (SB20350) (HT29 cells [3]; [11]): not synergistic
- caspase 3 activity / cell death in HT29 cells transfected with myr-Akt (HT29 cells [3]; constitutively active myristoylated Akt, 10 μM, 24 hours): protected against sphingadiene-induced cell death
- dose and time dependence of cytotoxicity (HT29 cells [4]; HT29, various concentrations at 24 hours or 10 μM at various time points): dose- and time-dependent
- cytotoxicity (viability) (HT29 cells [4]; [12]): cytotoxic
- viability in combination with PI3K inhibitor wortmannin (HT29 cells [4]; HT29, various concentrations, 24 hours, MTT assay): synergistic
- viability at 10 µM (HT29 cells [4]; Homo sapiens, HT-29, HT29, 10 μM, 24 hours, read-out: viability, % of controls): < 50%
- inhibitory effect on phosphorylation of C17-So by SK [5]: no inhibitory effect was observed
- conversion to the phosphorylated compound in intact cells (HT29 cells [6]; listed as C14 SDs): not converted to SD-phosphates
- uptake rate compared with long chain sphingosine (HT29 cells [6]): faster
- uptake rate by cells (HT29 cells [6]): taken up at equal rates
- clearance / metabolism in cells after lipid removal (HT29 cells [6]): remains unaltered
- clearance / metabolism in cells after lipid removal (HT29 cells [6]; listed as C14 SDs): remained in the cells for many hours
- time remaining in cells after lipid removal (HT29 cells [6]; HT29, FIG. 3): 6 h
- autophagosome formation (GFP-LC3) (SW480 cells [7]): autophagosome formation
- LC3 activation (shift from LC3-1 to LC3-2) (LC3): autophagic activity
- viability at 10 µM (HCT116 cells): > 50%
- inhibition of SK (SK): inhibit SK
- Luciferase activity (translational activity, protein synthesis) (protein synthesis): reduced by more than half
- viability at 10 µM (SW480 cells [8]): < 50%
- phosphorylation of Akt (Akt): inhibited
- phosphorylation of 4EBP (4EBP [9]): reduced phosphorylation

Structure (SMILES): CCCCCCCCCC=CC(O)C(N)COP(=O)(O)O (centres unmarked) [C14So-1P]
- processing of C17So-1P following preincubation [10]: No significant difference

Structure (SMILES): CCCCCCCCCCC/C=C/C=C/C(O)C(N)CO (centres unmarked) [C18Δ4:6Sd]
- cytotoxicity (viability) (HT29 cells [4]; [12]): cytotoxic

Structure (SMILES): CCCCCC=CCCC=CC(O)C(N)CO (centres unmarked) [C14Δ4:8Sd]
- cytotoxicity (viability) (HT29 cells [4]; [12]): cytotoxic

Structure (SMILES): CCCCCCCCCCCCC/C=C/[C@@H](O)[C@@H](N)CO [C14-So, reference compound]
- inhibitory effect on phosphorylation of C17-So by SK [5]: no inhibitory effect was observed
- conversion to the phosphorylated compound in intact cells (HT29 cells [6]): efficiently phosphorylated
- uptake rate compared with long chain sphingosine (HT29 cells [6]): faster
- uptake rate by cells (HT29 cells [6]): taken up at equal rates
- clearance / metabolism in cells after lipid removal (HT29 cells [6]): completely metabolized
- clearance / metabolism in cells after lipid removal (HT29 cells [6]; listed as C14 sphingosine): cleared from the cells in hours; also recorded: rapidly metabolized

Structure (SMILES): CCCCCCCCC/C=C/CC/C=C/C(O)C(N)CO (centres unmarked) [C18Δ4:8Sd]
- phosphorylation of 4EBP (4EBP [2]): inhibited
- cytotoxicity (viability) (HT29 cells [4]; [12]): cytotoxic
- phosphorylation of Akt (Akt): inhibited
